Reference: patent US20040039211A1, “Tetrapyrroles” (DUKE UNIVERSITY AND NATIONAL JEWISH MEDICAL AND RESEARCH …, priority 2000, published 2004)

Legend:
[1] = Hydrolysis / dissociation of the complex in methanol/aqueous or water solution; assay type: physicochemical
Experimental: (§1) Uv/vis Spectroscopy. […] Also the effects of EDTA, H2O2, and the methanol/water ratio on the stability of the manganese(III) complex were examined. […] […] 79:699 (1960)). When needed the biliverdin and biliverdin dimethylester as well as their reduced forms bilirubin and bilirubin dimethylester were studied. […] In a week, at 25° C., only 14% of the complex dissociated. When the water content was increased to 43%, half the complex dissociated in a week.

[2] = Stability in the presence of excess EDTA (uv/vis); assay type: physicochemical
Experimental: as §1

[3] = system: SOD-deficient E. coli JI132; assay: Aerobic growth of SOD-deficient E. coli in minimal medium; assay type: cell-based
Experimental: FIG. 13. […] The 20 mM ethanolic/albumin solution of compound was diluted into the medium. Also the growth of SOD-deficient E. coli was followed in the presence of 0.15% ethanol only (squares).
SOD activity can be monitored in the presence and absence of EDTA using the method of McCord and Fridovich (J. Biol. Chem. 244:6049 (1969)). The efficacy of a mimetic can also be determined by measuring the effect of the mimetic on the aerobic growth of a SOD null E. coli strain versus a parent strain. Specifically, parental E. coli (AB1157) and SOD null E. coli. […]
Effects on E. coli. E. coli strains AB1157 (SOD-proficient, wild type) and JI132 (SOD-deficient, sodAsodB) were obtained from J. A. Imlay (Imlay et al, J. Bacteriol. 169:2967 (1987)). […] Cultures were treated as previously described (Faulkner et al, J. Biol. Chem. 269:23471 (1994); Benov et al, J. Biol. Chem. 273:10313 (1998)). Due to the low water solubility, the compounds were solubilized with albumin in medium at a 1:1 molar ratio. Albumin itself had no effect on growth in the concentration range employed. Since methanol was toxic to the SOD-deficient strain of E. coli even when present in medium at 0.15%, the stock solutions of the compounds were prepared in ethanol.

[4] = Reactivity towards nitric oxide (uv/vis); assay type: physicochemical; settings: 14 μM, 90-fold excess NO, 90/10 methanol/PBS, 1 hour
[5] = Degradation by H2O2 followed by uv/vis spectroscopy; assay type: physicochemical
From the text: Uv/vis Spectroscopy. […] Also the effects of EDTA, H2O2, and the methanol/water ratio on the stability of the manganese(III) complex were examined. […] 79:699 (1960)). When needed the biliverdin and biliverdin dimethylester as well as their reduced forms bilirubin and bilirubin dimethylester were studied. At μM concentrations, manganese(III) and iron(III) porphyrins are degraded by H2O2 in aqueous solution. pH 7.8 (Batinic-Haberle et al, Inorg. Chem. 38:4011 (1999), Everett et al, J. Trans. Faraday Soc. 49:410 (1953)). […] The reaction was followed in 90/10, v/v methanouaqueous solution at pH^* 7.9. […] The uv/vis spectroscopy indicated degradation via the reduction of biliverdin to bilirubin followed by loss of metal (Gray et al, J. Chem. Soc. 2276 (1961); Kuenzle et al, Biochem. J. 130:1147 (1972); […], Nature 899 (1962)). The interaction of biliverdin and bilirubin with H2O, was also followed in 0.05 M tris buffer, pH 7.8. As observed for its metal complex, biliverdin undergoes reduction by H2O2 via bilirubin. Under pseudo-first order conditions (6 mM to 60 mM H2O2, 60 μM biliverdin), the second-order rate constant was k=3×10^-3 M^-1 s^-1. Bilirubin is more resistant to H2O2 than biliverdin or its metal complex. The disappearance of bilirubin was followed at 435 nm (Gray et al, J. Chem. Soc. 2268 (1961)). Under conditions given above and at 60 mM H2O2, about 40% of the biliverdin and 14% of bilirubin was degraded within 4.4 hours, and about 14% of the complex was degraded inside 80 min.

Solubility = assay type: physicochemical
[6] = SOD activity, xanthine oxidase/cytochrome c method; assay type: biochemical; settings: for kcat, O2^− dismutation: competition with 10 μM cytochrome c, pH 7.8, 25° C.
Experimental: FIG. 12. […] The v0 is the rate of reduction of 10 μM cytochrome c by O2. The vi is the rate of reduction of cytochome c inhibited by the porphyrin catalyst in the presence of 0.1 mM EDTA in 0.05 M tris buffer at pH 7.8. 40 μM xanthine. ˜2 nM xanthine oxidase at 25° C. The total volume of the assay solution is 3 mL.
SOD Activity. Catalysis of the dismutating of O2 in vitro was followed by the xanthine oxidase/cytochrome c method (McCord et al, J. Biol. Chem. 244:6049 (1969)).
Dismutation of superoxide anion, O2^−. Assays were conducted in 0.05 M aqueous phosphate buffer, pH 7.8, 0.1 mM EDTA, ±15 μg/mL of catalase, ±albumin. Rate constants for the reaction with O2^−were based upon the competition of the compounds with cytochrome c.
Two metallotetrapyrroles were tested for antioxidant activity, in vitro. In particular, the compounds were assayed for their ability to dismutate superoxide in the indirect method that utilizes xanthine and xanthine oxidase to generate superoxide and cytochrome c reduction as indicator of superoxide flux. […] The compounds were also assayed for their ability to prevent lipid peroxidation of rat brain homogenates by iron and ascorbate. The mixture of iron and ascorbate generates reactive oxygen species that oxidize biological lipids and these oxidized lipids can be detected as species that react with thiobarbituric acid (TBARS).
a) SOD activity determined using a xanthine oxidase/cytochrome c assay

Question: Which “fraction of complex dissociated (hydrolysis)” value ([1]; 90/10 methanol/aqueous, pH* 7.9, one week, 25° C.) does the source give for “Manganese(III) Biliverdin IX Dimethylester [{Mn^IIIBVDME}2]” here?
Answer: 14%

Question: What about the “fraction of complex dissociated (hydrolysis)” value ([1]; water content 43%, one week) of the same substance?
Answer: half

Question: What about the “stability in the presence of EDTA” value ([2]; 1 μM, 900-fold excess EDTA (0.9 mM), 2-4 hours, 25° C., methanol/aqueous (90/10), 0.05 M tris, pH* 7.9) of the same substance?
Answer: stable

Question: What about the “stability in the presence of EDTA” value ([2]; 20 μM, 900-fold excess of EDTA, pH 7.8) of the same substance?
Answer: stable

Question: And the “growth of SOD-deficient E. coli” value ([3]; 13 μM, after 15 hours, SOD-proficient 100%, SOD-deficient without compound 16%)?
Answer: 50%

Question: What about the “growth of SOD-deficient E. coli (in words)” value ([3]; 0.1 to 13 μM in minimal medium) of the same substance?
Answer: markedly improved

Question: And the “effect on SOD-deficient E. coli growing under aerobic conditions (in words)” value ([3]; minimal (five amino acids) medium)?
Answer: significant protection

Question: And the “reactivity towards NO (change of spectrum)” value [4]?
Answer: No change in the spectrum

Question: What about the “reactivity towards NO (change of spectrum)” value ([4]; listed as compound of FIG. 2C) of the same substance?
Answer: No reactivity towards NO has been detected

Question: And the “fraction degraded by H2O2” value ([5]; 60 mM H2O2, inside 80 min)?
Answer: about 14%

Question: And the “second-order rate constant k of H2O2 induced degradation” value ([5]; 90/10 v/v methanol/aqueous, pH* 7.9, 6 mM to 120 mM H2O2, 15 and 30 μM complex)?
Answer: 0.00064 M⁻¹ s⁻¹

Question: What about the “solubility in organic solvents” value (Solubility; ethanol, methanol) of the same substance?
Answer: soluble in ethanol and methanol

Question: What about the solubility in water (Solubility; water) of the same substance?
Answer: ~10^−8 M

Question: And the “specific activity (SOD mimetic)” value [6]?
Answer: 10,700 units/mg

Question: And the “effect of albumin on SOD-like activity” value ([6]; 1:1 albumin to compound ratio)?
Answer: no negative effect of albumin was observed

Question: And the “decrease of SOD-like activity in the presence of albumin” value ([6]; albumin to compound ratio 3)?
Answer: 50%

Question: And the SOD specific activity ([6]; per manganese, 1 unit = quantity (mg) per 3.0 mL causing 50% inhibition of reduction of 10 μM cytochrome c)?
Answer: 10700 U/mg

Question: And the “kcat, O2^− dismutation” value ([6]; per manganese)?
Answer: 5.5e+07 M⁻¹ s⁻¹

Question: And the “kcat, O2^− dismutation” value ([6]; per manganese, listed as compound of FIG. 2C)?
Answer: 5.5e+07 M⁻¹ s⁻¹

Question: And the “kcat, O2^− dismutation” value ([6]; per manganese, listed as ½ {Mn^III/IVBVDME^0/−}2)?
Answer: 5.5e+07 M⁻¹ s⁻¹

Question: And the “SOD Activity” value ([6]; xanthine oxidase/cytochrome c assay)?
Answer: 10,700 USOD/mg
